Measured values taken from patent publication US12655174B2, “Adenosine A3 receptor agonists, preparation methods and uses thereof” (ZHEJIANG VIMGREEN PHARMACEUTICALS, LTD., priority 2020, dated 2026).
pEC50: −log10 of the molar value.

Assays:
[1] = biological target: T1, ADORA3 receptor (CHO cells stably expressing ADORA3 receptor) (Homo sapiens, UniProt P0DMS8); assay: Effect of compound on intracellular cAMP level by adenosine A3 receptor agonism; type: cell-based; settings: forskolin-stimulated
T1 construct: expressed in transfected cells
T1 sequence (P0DMS8 1-318): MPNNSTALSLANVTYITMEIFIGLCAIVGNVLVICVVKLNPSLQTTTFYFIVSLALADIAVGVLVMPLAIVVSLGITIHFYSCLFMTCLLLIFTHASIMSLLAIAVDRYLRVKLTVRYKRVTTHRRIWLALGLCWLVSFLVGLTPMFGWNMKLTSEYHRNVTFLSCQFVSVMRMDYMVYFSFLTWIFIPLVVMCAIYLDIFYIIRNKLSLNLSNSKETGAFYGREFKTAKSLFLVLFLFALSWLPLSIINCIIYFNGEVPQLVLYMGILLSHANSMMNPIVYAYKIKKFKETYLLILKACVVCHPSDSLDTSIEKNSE
Procedure: Example 26: Test the Effect of Compound on Intracellular cAMP Level by Adenosine A3 Receptor Agonism
• 1) 1×HBSS with Ca2+ and Mg2+ (14 mL), 1 M HEPES (75 μL), a 7.5% (w/v) BSA stabilizer (pH 7.4, 200 μL), and 20 mM rolipram (7.5 μL) were respectively prepared as cAMP assay buffer. • 2) Preparation of compound source plate • a. […] A 10 mM stock solution was subjected to a 3-fold serial dilution by 100% (v/v) DMSO to prepare 10 doses of the test substance. • c. 1 mM of Forskolin was prepared by 100% (v/v) DMSO. • 3) Preparation of test plate • a. Prior to the assay, CHO cells stably expressing ADORA3 receptor were harvested and the cells were counted by using a Countess cell counter. […] The cells were seeded at a density of 2,000 cells/well in a 384-well plate. • 4) 10 nL/well of the serially diluted compound and 10 nL/well of 1 mM of forskolin were transferred to each well with ADORA3 receptor expressing cells by using Echo550. • 5) A cell plate was centrifuged at 1,000 rpm for 1 minute and then stirred at 600 rpm for 2 minutes. The plate was incubated at 37° C. • 6) An Eu-cAMP tracer working solution and an Ulight-anti-cAMP working solution were prepared according to the following table.
• 7) 5 μl/well of the Eu-cAMP tracer working solution and 5 μl/well of the Ulight-anti-cAMP working solution were added to each well of the plate. […] 2. Data Analysis • 1) An activation percentage was calculated by using the following formula:
[formula] • % Activation: activation percentage • Ratiocpd: ratio of emissivity of test compound • RatioLow control: ratio of low emissivity • RatioHigh control: ratio of high emissivity • 2) EC50 was calculated by an XLfit using the Hill equation to fit the activity percentage and a log of a compound concentration. 3. Test Result

[2] = Pharmacokinetic test of compound in SD rat; type: in vivo; settings: SD rats, intragastric administration (IG), cassette dosing
Procedure: Example 28: Pharmacokinetic Test of Compound in SD Rat
The animal species used in this experiment were SD rats. There were 3 animals per group. The rats were dosed in cassette format, i.e., multiple (1-6) different compounds were dosed simultaneously to the same group of the SD rats. The vehicle used for the drug was 5% DMSO+5% Solutl+90% ([…] methylcellulose M450), and the administration route was intragastric administration (IG).

| Structure (SMILES) | pEC50 [1] | AUC_D [2] [kg·ng·h/mL/mg] |
| --- | --- | --- |
| CNC(=O)[C@H]1OC(n2cnc3c(NCc4ccccn4)nc(-c4cncc(OC)c4)nc32)[C@H](O)[C@@H]1O (stereo in doubt) [compound 307, (2S,3S,4R,5S)-3,4-dihydroxyl-5-(2-(5-methoxypyridin-3-yl)-6-((pyridin-2-ylmethyl)amino)-9H-purin-9-yl)-N-methyltetrahydrofuran-2-carboxamide] | 8.03 | 173.85 |
| [2H]C([2H])([2H])NC(=O)[C@H]1O[C@@H](n2cnc3c(NCc4cc(C)cc(C)c4)nc(-c4cncc(Cl)c4)nc32)[C@H](O)[C@@H]1O [compound 224, (2S,3S,4R,5R)-5-(2-(5-chloropyridin-3-yl)-6-((3,5-dimethylbenzyl)amino)-9H-purin-9-yl)-3,4-dihydroxyl-N-(methyl-d3)-tetrahydrofuran-2-carboxamide] | 8.87 | – |
| [2H]C([2H])([2H])NC(=O)[C@H]1O[C@@H](n2cnc3c(NCc4cccc(C)c4)nc(-c4cncc(OC)c4)nc32)[C@H](O)[C@@H]1O [compound 302] | 8.65 | – |
| [2H]C([2H])([2H])NC(=O)[C@H]1O[C@@H](n2cnc3c(NCc4cc(C)cc(Cl)c4)nc(-c4cncc(Cl)c4)nc32)[C@H](O)[C@@H]1O [compound 222, (2S,3S,4R,5R)-5-(6-((3-chloro-5-methylbenzyl)amino)-2-(5-chloropyridin-3-yl)-9H-purin-9-yl)-3,4-dihydroxyl-N-(methyl-d3)-tetrahydrofuran-2-carboxamide] | 9.05 | – |
| [2H]C([2H])([2H])NC(=O)[C@H]1O[C@@H](n2cnc3c(NCc4cccc(C)c4)nc(-c4cncc(CC)c4)nc32)[C@H](O)[C@@H]1O [compound 282, (2S,3S,4R,5R)-5-(2-(5-ethylpyridin-3-yl)-6-((3-methylbenzyl)amino)-9H-purin-9-yl)-3,4-dihydroxyl-N-(methyl-d3)tetrahydrofuran-2-formamide] | 8.40 | – |
| [2H]C([2H])([2H])NC(=O)[C@H]1O[C@@H](n2cnc3c(NCc4cccc(CC)c4)nc(-c4cncc(Cl)c4)nc32)[C@H](O)[C@@H]1O [compound 223, (2S,3S,4R,5R)-5-(2-(5-chloropyridin-3-yl)-6-((3-ethylbenzyl)amino)-9H-purin-9-yl)-3,4-dihydroxyl-N-(methyl-d3)-tetrahydrofuran-2-carboxamide] | 7.82 | – |
| CNC(=O)[C@H]1O[C@@H](n2cnc3c(NCc4cccc(Cl)n4)nc(-c4cccnc4)nc32)[C@H](O)[C@@H]1O [compound 247] | 8.38 | – |
| CNC(=O)[C@H]1O[C@@H](n2cnc3c(NCc4cccc(C)n4)nc(-c4cccnc4)nc32)[C@H](O)[C@@H]1O [compound 107] | 8.28 | – |
| [2H]C([2H])([2H])NC(=O)[C@H]1O[C@@H](n2cnc3c(NCc4cccc(OC)c4)nc(-c4cncc(Cl)c4)nc32)[C@H](O)[C@@H]1O [compound 265, (2S,3S,4R,5R)-5-(2-(5-chloropyridin-3-yl)-6-(3-methoxybenzylamino)-9H-purin-9-yl)-3,4-dihydroxyl-N-(methyl-d3)-tetrahydrofuran-2-carboxamide] | – | 764.50 |
| CNC(=O)[C@H]1O[C@@H](n2cnc3c(NCc4cccc(C)n4)nc(-c4cncc(C)c4)nc32)[C@H](O)[C@@H]1O [compound 295, (2S,3S,4R,5R)-3,4-dihydroxyl-N-methyl-5-(6-(((6-methylpyridin-2-yl)methyl)amino)-2-(5-methylpyridin-3-yl)-9H-purin-9-yl)tetrahydrofuran-2-carboxamide] | – | 610.66 |
| CNC(=O)[C@H]1O[C@@H](n2cnc3c(NCc4ccccc4)nc(-c4cncc([N+](=O)[O-])c4)nc32)[C@H](O)[C@@H]1O [compound 152, (2S,3S,4R,5R)-5-(6-(benzylamino)-2-(5-nitropyridin-3-yl)-9H-purin-9-yl)-3,4-dihydroxyl-N-methyltetrahydrofuran-2-carboxamide] | – | 1352.37 |
| [2H]C([2H])([2H])NC(=O)[C@H]1O[C@@H](n2cnc3c(N[C@H](C)c4ccccc4)nc(-c4cncc(Cl)c4)nc32)[C@H](O)[C@@H]1O [compound 251] | – | 610.00 |
| CCNC(=O)[C@H]1O[C@@H](n2cnc3c(NCc4ccccc4)nc(-c4cncc(Cl)c4)nc32)[C@H](O)[C@@H]1O [compound 242, (2S,3S,4R,5R)-5-(6-(benzylamino)-2-(5-chloropyridin-3-yl)-9H-purin-9-yl)-N-ethyl-3,4-dihydroxyltetrahydrofuran-2-carboxamide] | – | 811.33 |
| CONC(=O)[C@H]1O[C@@H](n2cnc3c(NCc4cccc(I)c4)ncnc32)[C@H](O)[C@@H]1O [compound 3, (2S,3S,4R,5R)-5-(6-(3-iodobenzylamino)-9H-purin-9-yl)-3,4-dihydroxyl-N-methoxy-tetrahydrofuran-2-formamide] | – | 152.40 |
| CNC(=O)[C@H]1O[C@@H](n2cnc3c(NCc4ccccc4)nc(-c4ccc(C)nc4)nc32)[C@H](O)[C@@H]1O [compound 120, (2S,3S,4R,5R)-5-(6-(benzylamino)-2-(6-methylpyridin-3-yl)-9H-purin-9-yl)-3,4-dihydroxyl-N-methyltetrahydrofuran-2-carboxamide] | – | 86.00 |
| [2H]C([2H])([2H])NC(=O)[C@H]1O[C@@H](n2cnc3c(NCc4cc(F)ccc4Cl)nc(-c4cncc(Cl)c4)nc32)[C@H](O)[C@@H]1O [compound 246, (2S,3S,4R,5R)-5-(6-(2-chloro-5-fluorobenzylamino)-2-(5-chloropyridin-3-yl)-9H-purin-9-yl)-3,4-dihydroxyl-N-(methyl-d3)-tetrahydrofuran-2-carboxamide] | 8.93 | – |
| CNC(=O)[C@H]1O[C@@H](n2cnc3c(NCc4cccc(C(F)(F)F)c4)nc(-c4cncc(F)c4)nc32)[C@H](O)[C@@H]1O [compound 180, (2S,3S,4R,5R)-5-(6-(3-(trifluoromethyl)benzylamino)-2-(5-fluoropyridin-3-yl)-9H-purin-9-yl)-3,4-dihydroxyl-N-methyl-tetrahydrofuran-2-formamide] | – | 81.74 |
| [2H]C([2H])([2H])NC(=O)[C@H]1O[C@@H](n2cnc3c(NCc4cccc(Br)c4)nc(-c4cncc(Cl)c4)nc32)[C@H](O)[C@@H]1O [compound 248, (2S,3S,4R,5R)-5-(6-((3-bromobenzyl)amino)-2-(5-chloropyridin-3-yl)-9H-purin-9-yl)-3,4-dihydroxyl-N-(methyl-d3)tetrahydrofuran-2-carboxamide] | – | 3298.00 |
| CNC(=O)[C@H]1O[C@@H](n2cnc3c(NC)nc(-c4cncc(Cl)c4)nc32)[C@H](O)[C@@H]1O [compound 70, (2S,3S,4R,5R)-5-(2-(5-chloropyridin-3-yl)-6-(methylamino)-9H-purin-9-yl)-3,4-dihydroxyl-N-methyltetrahydrofuran-2-carboxamide] | 8.91 | – |
| [2H]C([2H])([2H])NC(=O)[C@H]1O[C@@H](n2cnc3c(NCc4ccccc4)nc(-c4ccco4)nc32)[C@H](O)[C@@H]1O [compound 12, (2S,3S,4R,5R)-5-(6-(benzylamino)-2-(furan-2-yl)-9H-purin-9-yl)-3,4-dihydroxyl-N-(methyl-d3)-tetrahydrofuran-2-formamide] | – | 79.00 |
| CNC(=O)[C@H]1O[C@@H](n2cnc3c(NC)nc(-c4cccnc4)nc32)[C@H](O)[C@@H]1O [compound 102, (2S,3S,4R,5R)-3,4-dihydroxyl-N-methyl-5-(6-(methylamino)-2-(pyridin-3-yl)-9H-purin-9-yl)tetrahydrofuran-2-carboxamide] | 8.85 | – |
| CNC(=O)[C@H]1OC(n2cnc3c(NCc4ccccc4)nc(-c4ccccn4)nc32)[C@H](O)[C@@H]1O (stereo in doubt) [compound 325, (2S,3S,4R,5S)-5-(6-(benzylamino)-2-(pyridin-2-yl)-9H-purin-9-yl)-3,4-dihydroxyl-N-methyltetrahydrofuran-2-carboxamide] | 8.02 | – |
